The source of these data is US11389423B2, “Pharmaceutical composition, excipient for the composition and use of the composition” (priority 2018, dated 2022).

In one data set the test system is male rabbits. In words: Blood pressure measurement and heart rate. In kind it is in vivo, New Zealand rabbits. The settings on record: for heart rate: anesthetized male rabbits. The procedure: Male New Zealand rabbits (n=6 per group) were used for pharmacological safety tests. All tests were performed orally (route recommended for humans) and the investigated parameters were determined after a single administration of CBD-SINT. CBD-SINT doses were determined by allometric extrapolation from the average dose used in human patients (25 mg/kg).
The dose of 51 mg/kg was used as the intermediate dose, stipulating a higher and a lower dose. Three dose ranges were used according to the Guide for Conducting Non-Clinical Toxicology and Pharmacological Safety Studies Necessary for Drug Development (ANVISA, 2013; Version 1.2). Thus, the doses used were 17, 51 and 170 mg/kg of CBD-SINT.
b) Blood pressure measurement, after a 6-h fasting, three doses of CBD-SINT (17, 51 and 170 mg/kg) were administered to different groups of male rabbits by gavage. Placebo was administered to the control group (1 mL/kg). 40 minutes after treatments all rabbits were anesthetized with 10 mg/kg diazepam intramuscularly combined with 115 mg/kg ketamine. Then, the animals received a bolus injection of heparin (50 IU) subcutaneously. Tracheostomy was performed to allow animals to breathe spontaneously. Then, the left carotid artery was isolated, cannulated, and connected to a pressure transducer coupled to a PowerLab recording system (Chart 5.0, ADI Instruments, Castle Hill, Australia). After 15 minutes for hemodynamic stabilization, systolic blood pressure (SBP), diastolic blood pressure (DBP) and mean arterial pressure (MAP) were recorded for another 20 min.

Data set [1] has as its system polychromatic erythrocytes. Conditions: rats male and female, 500, 1000 and 2000 mg/kg orally. As for the experimental part: To perform the micronucleus test (Schmid, 1976), different groups of rats (male and female; n=10) received three doses of CBD (500, 1000 and 2000 mg/kg) orally. The negative control group received placebo by gavage and the positive control was treated with cyclophosphamide monohydrate (20 mg/kg—Sigma-Aldrich) intraperitoneally. After 24 hours (cyclophosphamide) and 48 hours (CBD-SINT and vehicle) the end of treatments, the animals were euthanized by decapitation. The femurs were removed, the proximal epiphysis was removed to expose the medullary canal and, with the aid of a 13×4.5 mm needle and 3 mL NaCl solution (150 mM), the marrow was removed, washing the medullary canal with NaCl solution. The material was transferred to glass tubes and centrifuged at 1000 rpm/5 min. After centrifugation, the supernatant was discarded, and the deposit was resuspended with a 4% formaldehyde solution and slightly homogenized with the aid of a Pasteur pipette. A drop of this cell suspension was placed on a clean, dry slide, and then the smear was performed. The slides were dried at room temperature and, after 24 hours, stained with Leishman eosin-methylene blue and subjected to microscopic analysis. To determine the number of micronuclei, 2000 polychromatic erythrocytes were counted per animal (1000 in each slide) using an optical microscope, at 400× magnification. The analysis of the slides was blind and performed by a single evaluator.

Data set [2] deals with Salmonella typhimurium TA98. In words: AMES test, strain TA98. In kind it is cell-based. Conditions: TA98, with (+S9) and without (-S9) metabolic activation, 62.5-375 μg/plate. An excerpt: For the AMES test, the TA 100 and TA 98 strains of Salmonella typhimurium were used. The strain TA 100, which detects mutagens causing base pair replacement in DNA, contains a mutation in the hisG gene (hisG46), which codes for the first histidine biosynthesis enzyme, with the CG pair as the preferred point for reversion. The strain TA 98 has a mutation in the hisD gene to reverse eight repetitive GC residues and detects mutagenic compounds causing the DNA reading frame to shift. According to the methodology of direct incorporation in plates, developed by Maron and Ames (1983), different concentrations of CBD-SINT (375, 250, 125 and 62.5 μg/plate) were mixed with 0.1 mL of the bacteria culture and 2 mL of surface agar (top agar), supplemented with traces of histidine and biotin. For the tests with metabolic activation, 0.5 mL homogenized microsomal fraction S9 of rat liver (post-mitochondrial fraction, supplemented with a cofactor, prepared from the liver of rodents treated with an enzymatic inducing agent, arochloror 1254) (MOLTOX—Molecular Toxicology, USA) were added. As a negative control, double-distilled water (vehicle) was used. As a positive control for TA98, 4-nirophenylenediamine (NPD) dissolved in DMSO was used at a concentration of 10 μg/plate. […] After this period, the number of reversing colonies per plate was counted. […]

Another data set relates to mice (male and female). In words: Single dose (acute) toxicity study in mice. In kind it is in vivo. As for the experimental part:
The single-dose (acute) toxicity study was carried out with different groups of rats and mice (male and female) and according to the procedures recommended by OECD (2001) and ANVISA (2013).
After a 6 h-fasting period, the animals' body weight was determined, and the dose of the synthetic CBD was calculated. Two single doses (1000 and 2000 mg/kg) of synthetic CBD were administered orally (with the aid of a gavage probe) and intraperitoneally in different groups of rats and mice (male and female). Other different groups of rodents were treated with placebo and were considered as control groups.
The animals were carefully observed for any toxicity signs within the first eight hours after treatment, and daily for a period of 14 days. On the 15th day all animals were euthanized, and the respective anatomopathological investigations were performed on the 15th day after the treatments.

Where [3] appears, read: 1000 mg/kg and 2000 mg/kg intraperitoneally, single dose.

`C=C(C)[C@@H]1CCC(C)=C[C@H]1c1c(O)cc(CCCCC)cc1O` [CBD-SINT, Cannabidiol] showed a heart rate in the data set on male rabbits (17 mg/kg oral) of 285±18 bpm. Moreover, in the data set with male rabbits (51 mg/kg oral), the heart rate is given as 279±20 bpm. In addition, the heart rate with male rabbits (170 mg/kg oral) was found to be 275±17 bpm. Moreover, in the data set with male rabbits (anesthetized male rabbits, 17, 51 or 170 mg/kg oral), the “blood pressure levels (systolic, diastolic, mean arterial) compared to the control group” value was “did not significantly change”. In addition, in data set [1], the “ratio of polychromatic/normochromatic erythrocytes (PCE/NCE ratio) vs placebo” value is “did not cause any significant change”. For the same compound, the “MNPCE number vs placebo (C-)” value in data set [1] (48 hours) was “in a similar way to that found for animals treated only with placebo”. Besides, in data set [2], the “frequency of reversible mutants with the increase in concentration” value was “no increase” and the “mutagenicity ratios (MR)” value is “less than 2”. Moreover, in the data set on mice (male and female) (setting [3]), the “abdominal contortions during the first 8 hours” value is “occasional abdominal contortions” and the “activity during the first 8 hours of observation” value is “significant decrease in its activity”. Also, the “daily feed and water consumption compared to placebo” value with mice (male and female) (1000 and 2000 mg/kg, oral or intraperitoneal) is on record as “no change”. In addition, the “final body weight and body weight gains vs placebo” value in the data set with mice (male and female) (1000 and 2000 mg/kg, oral or intraperitoneal, 14 days) was “similar”. Moreover, the “appearance and general behavior pattern until the end of the 14-days observation” value in the data set with mice (male and female) (1000 and 2000 mg/kg, oral or intraperitoneal, after the first 8 h) is recorded as “no significant changes”. The “absolute (g) or relative (%) weight of all organs vs placebo” value in the data set on mice (male and female) (after 14 days) was “no significant differences”. In the data set on mice (male and female) (day 15), the histopathological analyzes result was “no significant changes” and the “macroscopic examination of vital organs” value is “did not disclose any abnormalities”. In addition, the “deaths (LD50 not set forth)” value with mice (male and female) (doses up to 2000 mg/kg orally or intraperitoneally, 14 days) is “no deaths were observed”.
